Measurements as given in ChEMBL document CHEMBL4828773, “Novel HDAC1 and HDAC2 Inhibitors for Treating Diseases” (ACS Med Chem Lett, 2021).

Key:
[1] = biological target: Histone deacetylase 2 (Homo sapiens, UniProt Q92769); assay: Inhibition of human HDAC2 preincubated for 10 mins followed by tripeptide substrate addition and measured after 60 mins by fluorescence microplate reader assay
[2] = biological target: Histone deacetylase 1 (Homo sapiens, UniProt Q13547); assay: Inhibition of HDAC1 (unknown origin) preincubated for 10 mins followed by tripeptide substrate addition and measured after 60 mins by fluorescence microplate reader assay
Chain of Histone deacetylase 1 (Q13547 whole entry): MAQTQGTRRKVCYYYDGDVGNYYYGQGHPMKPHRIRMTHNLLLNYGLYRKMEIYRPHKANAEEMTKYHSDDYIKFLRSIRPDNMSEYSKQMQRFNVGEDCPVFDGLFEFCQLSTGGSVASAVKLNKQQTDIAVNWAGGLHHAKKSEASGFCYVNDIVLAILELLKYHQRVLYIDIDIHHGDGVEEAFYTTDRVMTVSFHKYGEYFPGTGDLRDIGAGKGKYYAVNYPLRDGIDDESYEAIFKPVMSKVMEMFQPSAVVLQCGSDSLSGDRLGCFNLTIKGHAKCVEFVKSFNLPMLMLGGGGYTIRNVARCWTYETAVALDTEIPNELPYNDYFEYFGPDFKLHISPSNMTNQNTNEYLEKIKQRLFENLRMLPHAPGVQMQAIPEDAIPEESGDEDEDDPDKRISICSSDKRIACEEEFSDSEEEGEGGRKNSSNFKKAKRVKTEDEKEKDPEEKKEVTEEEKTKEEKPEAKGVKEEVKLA

Chain of Histone deacetylase 2 (Q92769 whole entry): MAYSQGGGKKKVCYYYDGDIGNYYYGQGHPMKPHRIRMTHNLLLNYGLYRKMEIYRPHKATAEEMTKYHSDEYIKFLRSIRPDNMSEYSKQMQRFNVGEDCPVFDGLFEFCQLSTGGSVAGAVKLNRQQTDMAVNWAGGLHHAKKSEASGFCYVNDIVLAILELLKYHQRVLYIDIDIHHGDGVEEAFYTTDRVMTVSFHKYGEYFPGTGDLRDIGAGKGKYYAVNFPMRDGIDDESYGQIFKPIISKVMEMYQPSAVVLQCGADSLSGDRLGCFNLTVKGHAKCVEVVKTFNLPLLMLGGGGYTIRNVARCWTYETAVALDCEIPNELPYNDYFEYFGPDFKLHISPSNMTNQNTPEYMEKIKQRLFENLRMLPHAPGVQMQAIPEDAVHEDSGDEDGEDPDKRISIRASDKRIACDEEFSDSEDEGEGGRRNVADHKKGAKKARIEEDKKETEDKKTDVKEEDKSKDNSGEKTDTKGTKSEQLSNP

Row | IC50 [1] | IC50 [2] | Compound
1 | 10 nM | 5 nM | CN1C(=O)Cc2cc(C(=O)Nc3cc(-c4cccs4)ccc3N)ccc21
2 | 10 nM | 1 nM | Nc1ccc(-c2ccccc2)cc1NC(=O)c1ccc2c(c1)ncn2CCN1CCOCC1
3 | 5 nM |  | CN(C)CCNc1ccc2cc(C(=O)Nc3cc(-c4cccs4)ccc3N)ncc2c1
4 | 5 nM | 1 nM | Nc1ccc(-c2cccs2)cc1NC(=O)c1ccc2c(c1)CC(=O)N2CCCN1CCOCC1
5 | 15 nM |  | CN(C)CCN(C)c1ccc2cc(C(=O)Nc3cc(-c4cccs4)ccc3N)cnc2c1

Row | Compound | IC50 [1] | IC50 [2]
6 | Nc1ccc(-c2cccs2)cc1NC(=O)c1ccc2c(c1)CC(=O)N2CCN1CCOCC1 | 5 nM | 1 nM
